Values quoted from earlier work in patent publication US20130345296A1, “Compositions Comprising a Taxane for Coating Medical Devices” (AVIDAL VASCULAR GMBH, priority 2010, published 2013).

Columns and labels:
[1] = system: leukemia, colon, breast, melanoma, sarcomas, and Lewis lung tumor systems; details: Tarr et al. (1987); Horwitz (1992)
[2] = system: microtubules; details: in vitro studies; Rowinsky et al. (1990)

CC(=O)O[C@H]1C(=O)[C@@]2(C)[C@H]([C@H](OC(=O)c3ccccc3)[C@]3(O)C[C@H](OC(=O)[C@H](O)[C@@H](NC(=O)c4ccccc4)c4ccccc4)C(C)=C1C3(C)C)[C@]1(OC(C)=O)CO[C@@H]1C[C@@H]2O [taxol, paclitaxel]
activity against tumor systems [1]: active | concentrations of taxol that stabilize microtubules [2]: 0.1 to 10.0 µg/mL
